In US10555915B2, “Methods for treating acute acoustic trauma” (Hough Ear Institute, priority 2009, dated 2020):

How the values were obtained:
[1] = tested on: AAT-induced hearing loss; assay: Chinchilla AAT model, oral treatment, ABR threshold shift; format: in vivo, chinchilla laniger
Procedure: The treatments were administered a total of five times including one dose 4 hours post-AAT, and two doses daily on days 1 and 2 post AAT.
Hearing was assessed as auditory brainstem response (ABR) which was measured at between 1 and 3 days prior to AAT and at one or more of the following time points post AAT: 1 hr, 8 hr, 24 hr 7 day and 21 days. The 21 day test point was considered the permanent threshold shift (PTS). ABR recordings were performed under light ketamine (20 mg/kg) and xylazine (1 mg/kg) anesthesia. Small supplemental doses (⅓ of initial dose) were given if needed. ABR thresholds were recorded from subcutaneous needle electrodes placed under the skin of the head. […] Auditory stimuli was generated using a computer-aided system (Intelligent Hearing Systems, Miami, Fla.) coupled to high frequency transducers. Acoustic stimuli were tone pips (5 ms duration and 1 ms Blackman rise and fall) at frequencies of 0.5, 1, 2, 4, 6, 8, and 16 kHz. All acoustic stimuli were transduced through the computer-controlled attenuator to a 3A insert earphone [Etyniotic Research (ER)-3A, Etymotic Research Inc., Elk Grove Village, Ill.] placed about 5 mm from the tympanic membrane. The insert earphone was calibrated with a coupler mounted to the sound level meter approximating its placement. The electrical responses obtained from the electrodes were amplified (×100,000), filtered (100-3,000 Hz), and digitized through an A/D converter on a signal processing board. They were averaged at a sample rate of 1024 for each level.
Hearing thresholds were tested in 10 dB descending steps until near the threshold, and then 5 dB ascending steps were taken to determine the threshold. Threshold was defined as the midpoint between the lowest level of a clear response and the next level where no response was observed. The threshold shift refers to the difference in threshold prior to and following AAT. The investigators performing the ABR measurements were blinded as to the identity of the animal groups.
Statistically significant differences in threshold shifts were tested via ANOVA (SPSS 14.0 for Windows).

[2] = tested on: AAT-induced hearing loss; assay: Chinchilla AAT model, NAC intraperitoneal, ABR threshold shift; format: in vivo; details: FIG. 3; for threshold shift at 21 days following AAT exposure: p<0.05
Procedure: For the experiments and examples described herein, the following methods were generally employed except for those described with respect to FIG. 5. Female adult chinchilla laniger (Mouton Chinchilla Ranch, Rochester, Minn.) weighing 500-850 grams were placed, two at a time, in two small wire restraint cages on a wooden plate where the AAT was induced by a 105 dB SPL octave-band noise centered at 4 kHz for 6 hours in a sound isolation booth [Industrial Acoustics Company (IAC), New York, N.Y.]. The noise was digitally generated by a Tucker Davis Technologies (TDT, Alachua, Fla.) device and passed through a real time attenuator (TDT, RP2), filtered, amplified with a preamplifier (QSC audio power, Costa Mesa, Calif.), and transduced with a high frequency acoustic driver and an acoustic speaker (JBL 2350, Northridge, Calif.) suspended from the ceiling of the sound booth which is placed directly above the wire cages. Before noise exposure, the sound spectrum output of the system was calibrated with a sound level meter centered at an octave bandwidth of 4 kHz. A condenser microphone (B&K 2804, Norcross, Ga.) coupled to the preamplifier was placed between the two wire cages at the level of the animals' heads to monitor the noise level. During noise exposure, the noise level was continually and visually monitored using the PULSE software system [B&K Sound & Vibration Measurement (version 10.0), Norcross, Ga.] including FFT Analysis Type 7770 and CPB Analysis 7771. […]
Hearing was assessed as auditory brainstem response (ABR) which was measured at between 1 and 3 days prior to AAT and at one or more of the following time points post AAT: 1 hr, 8 hr, 24 hr 7 day and 21 days. […] ABR thresholds were recorded from subcutaneous needle electrodes placed under the skin of the head. […]

Compound | average threshold shift at each individual frequency (0.5, 1, 2, 4, 6 and 8 kHz) ([1]; 300 mg/kg oral, compared to control, FIG. 2) | average threshold shift across all frequencies tested ([1]; 21 days post AAT, 300 mg/kg oral, five doses from 4 hours post-AAT, compared to control animals, FIG. 1) | average threshold shift for each individual frequency tested ([1]; 21 days post AAT, oral, 300 mg/kg HPN-07 alone or + 300 mg/kg NAC, vs control (10% sucrose), FIG. 4A) | combined average threshold shift from 2 kHz to 8 kHz ([1]; 21 days post AAT, oral, vs control, FIG. 4B) | outer hair cell loss ([1]; expected in view of ABR data, compared to the control group) | protection from hearing loss due to AAT ([1]; oral administration to chinchillas exposed to AAT, summary statement) | threshold shift at 21 days following AAT exposure ([2]; 100 mg/kg NAC i.p.) | threshold shift at 21 days following AAT exposure ([2]; 200 mg/kg NAC i.p.) | threshold shift soon after treatment ([2]; NAC i.p. 4 hours post AAT)
CC(C)(C)[N+]([O-])=Cc1ccc(S(=O)(=O)O)cc1S(=O)(=O)O [HPN-07, 2,4-disulfonyl α-phenyl tertiary butyl nitrone] | most pronounced effect of HPN-07 occurred at 0.5, 1, 6 and 8 kHz, while the effect was less prominent at 2 and 4 kHz | significantly decreased average threshold shift | significant reduction in threshold shift at 0.5, 1, 4 and 6 kHz | overall significant reduction in threshold shift | statistically significant reduction in outer hair cell loss | significantly protected them from hearing loss | – | – | –
CC(=O)N[C@@H](CS)C(=O)O [NAC, N-acetylcysteine] | – | – | – | – | – | – | significant decrease in threshold shift | significant decrease in threshold shift | mild effect on threshold shift
